Calls of active or inactive are those of the source.
Key:
[1] = target: T1, Delta-type opioid receptor (Homo sapiens, UniProt P41143); test: HTS Image-Based Screen for Antagonists of the DOR Receptor. [Related pubchem assays (depositor defined):AID1777, AID1785, AID1786, AID2133]; assay type: functional
[2] = target: Heat shock protein HSP 90-alpha (Homo sapiens, UniProt P07900); assay type: functional, organism-based
[3] = target: T2, Rac GTPase-activating protein 1 (Homo sapiens, UniProt Q9H0H5); test: blockers of MgcRacGAP-driven Rac1 GTP hydrolysis – biochemical, ADP Hunter fluorescence, primary and confirmatory, confirmation (AID 624330); assay type: functional
T2 sequence (Q9H0H5 whole entry): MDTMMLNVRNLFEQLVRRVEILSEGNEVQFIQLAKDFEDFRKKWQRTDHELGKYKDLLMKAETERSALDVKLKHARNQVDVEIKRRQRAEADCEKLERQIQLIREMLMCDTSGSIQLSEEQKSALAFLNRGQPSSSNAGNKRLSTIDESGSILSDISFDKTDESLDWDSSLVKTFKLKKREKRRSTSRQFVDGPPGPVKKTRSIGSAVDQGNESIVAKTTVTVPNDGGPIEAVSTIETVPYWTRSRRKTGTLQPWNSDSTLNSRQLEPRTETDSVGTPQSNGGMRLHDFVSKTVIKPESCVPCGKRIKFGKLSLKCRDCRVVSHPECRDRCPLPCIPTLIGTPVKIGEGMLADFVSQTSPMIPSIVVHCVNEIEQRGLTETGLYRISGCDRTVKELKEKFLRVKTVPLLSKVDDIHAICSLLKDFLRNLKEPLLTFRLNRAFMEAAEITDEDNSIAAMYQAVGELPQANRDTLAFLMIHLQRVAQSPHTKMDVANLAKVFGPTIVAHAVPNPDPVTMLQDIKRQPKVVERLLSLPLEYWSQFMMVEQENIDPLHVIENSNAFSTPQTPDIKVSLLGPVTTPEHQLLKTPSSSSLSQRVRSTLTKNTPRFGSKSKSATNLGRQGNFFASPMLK

[4] = non-specific 3'UTR reporter inhibition in Clone20-Shn3RL – cell-based, Renilla luciferase, cherry-picked, counter-screen for Shn3 inhibitor project, dose response (AID 624133); assay type: functional
[5] = target: T3, Kappa-type opioid receptor (Homo sapiens, UniProt P41145); assay type: functional
Melanocortin receptor 4 = Melanocortin receptor 4 (Homo sapiens, UniProt P32245); test: inhibitors of MC4R cAMP signaling – cell-based, TR-FRET, biased antagonists, dose response (AID 602298); assay type: functional;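 further: antagonist potency against agonist-stimulated cAMP production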
[6] = target: T4, Bifunctional protein GlmU (Mycobacterium tuberculosis, UniProt P9WMN3); test: Inhibitors of Mycobacterial Glucosamine-1-phosphate acetyl transferase (GlmU). Secondary screen.; design: species or system Mycobacterium tuberculosis H37Rv
T4 sequence (P9WMN3 whole entry): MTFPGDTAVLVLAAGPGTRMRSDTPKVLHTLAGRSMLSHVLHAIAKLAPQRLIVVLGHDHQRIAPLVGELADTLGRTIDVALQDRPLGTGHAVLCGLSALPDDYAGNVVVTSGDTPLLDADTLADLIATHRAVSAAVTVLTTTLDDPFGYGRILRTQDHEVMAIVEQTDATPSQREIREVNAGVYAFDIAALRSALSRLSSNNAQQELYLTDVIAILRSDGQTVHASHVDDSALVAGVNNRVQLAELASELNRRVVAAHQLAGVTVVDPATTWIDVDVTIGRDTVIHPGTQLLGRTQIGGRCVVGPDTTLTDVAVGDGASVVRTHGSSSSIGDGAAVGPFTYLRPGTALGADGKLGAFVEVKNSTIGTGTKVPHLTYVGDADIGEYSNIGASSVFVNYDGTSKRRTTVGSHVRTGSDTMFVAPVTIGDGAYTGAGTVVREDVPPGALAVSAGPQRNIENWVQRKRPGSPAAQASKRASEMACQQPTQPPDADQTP

Mu-type opioid receptor = Mu-type opioid receptor (Homo sapiens, UniProt P35372); test: HTS Image-Based Screen for Agonists of the MOR Receptor. [Related pubchem assays (depositor defined):AID1777, AID1785, AID1786, AID2133]; assay type: functional;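 further: imaging of beta-arrestin GFP recruitment into spots after receptor activation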
[7] = target: T5, Mannose-6-phosphate isomerase (Homo sapiens, UniProt P34949); test: MPI enzyme activity inhibition – biochemical, fluorescence intensity, coupled assay, primary screen (AID 1209)
T5 sequence (P34949 whole entry): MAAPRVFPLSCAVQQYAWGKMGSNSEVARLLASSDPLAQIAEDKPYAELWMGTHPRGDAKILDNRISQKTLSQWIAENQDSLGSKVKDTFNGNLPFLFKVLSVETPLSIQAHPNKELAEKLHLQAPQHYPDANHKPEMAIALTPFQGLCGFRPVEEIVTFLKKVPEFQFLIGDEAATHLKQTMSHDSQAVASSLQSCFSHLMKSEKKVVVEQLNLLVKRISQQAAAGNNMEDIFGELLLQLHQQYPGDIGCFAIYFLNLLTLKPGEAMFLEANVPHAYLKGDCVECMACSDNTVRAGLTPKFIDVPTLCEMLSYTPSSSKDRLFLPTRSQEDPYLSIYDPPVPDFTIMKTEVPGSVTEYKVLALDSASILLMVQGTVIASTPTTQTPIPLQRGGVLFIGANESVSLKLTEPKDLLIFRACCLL

Escherichia coli [8] = test: microbe, parasite or virus in culture
[9] = target: G-protein coupled receptor 35 (Homo sapiens, UniProt Q9HC97); test: inhibition of zaprinast-stimulated GPR35 beta-arrestin translocation – imaging, U2OS, beta-arrestin-GFP, zaprinast agonist, primary screen (AID 2058); assay type: functional;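 further: antagonist potency meaning inhibition of agonist-induced arrestin redistribution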
[10] = target: T6, V-type proton ATPase subunit c' (Saccharomyces cerevisiae S288c, UniProt P32842); test: Dose Response of Small Molecules that Regulate V-ATPase Proton Transport in Yeast using pHLuorin, Cherry Pick 1. [Related pubchem assays (depositor defined):AID504622]; assay type: functional
[11] = target: T1, Delta-type opioid receptor; test: HTS Image-Based Screen for Agonists of the DOR Receptor. [Related pubchem assays (depositor defined):AID1777, AID1786, AID2133]; assay type: functional
[12] = loss of viability in HepG2 cells – cell-based, CellTiter-Glo, cherry-picked, cytotoxicity control for Shn3 inhibitor project, dose response (AID 624134); assay type: functional
Escherichia coli [13] = test: microbe, parasite or virus in culture; remark: listed apart in the source
[14] = target: T3, Kappa-type opioid receptor; assay type: functional; remark: listed apart in the source
[15] = target: T6, V-type proton ATPase subunit c'; test: Dose Response of Small Molecules that Regulate V-ATPase Proton Transport in Yeast using pHLuorin, Cherry Pick 2.; assay type: functional; conditions: read-out: EC50_MICROM
[16] = cAMP pathway inhibition in counterscreen cell line – TR-FRET cAMP detection, counter-screen for MC4R biased antagonist project, dose response (AID 602305); assay type: functional, cell-based;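 further: U2OS cells stimulated with forskolin near its EC80 as the cAMP inducer; potency is for inhibition of forskolin-stimulated cAMP signaling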
[17] = reduction of Shn3 3'UTR-driven luciferase in osteoblasts – cell-based, Clone20 osteoblasts, firefly luciferase, cherry-picked, dose response (AID 624132); assay type: functional;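 further: firefly luciferase luminescence from reporter carrying the Shn3 3'UTR in osteoblasts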
[18] = viability loss in HeLa cells – cytotoxicity control for MgcRacGAP inhibitor project, dose response (AID 624300); assay type: functional
[19] = target: Tyrosine-protein kinase Fyn (Homo sapiens, UniProt P06241); assay type: functional
[20] = target: Macrophage colony-stimulating factor 1 receptor (Homo sapiens, UniProt P07333); assay type: functional;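 further: value comes from the Navigating the Kinome screening panel, CSF1R member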
[21] = target: Tyrosine-protein kinase Lyn (Homo sapiens, UniProt P07948); assay type: functional;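 further: lyn as one member of a kinase panel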
[22] = target: Tyrosine-protein kinase Lck (Homo sapiens, UniProt P06239); assay type: functional;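 further: lck was assayed as one member of a kinase panel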
[23] = target: Tyrosine-protein kinase Blk (Homo sapiens, UniProt P51451); assay type: functional;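 further: obtained as one member of a kinome-wide kinase assay panel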
[24] = target: Vascular endothelial growth factor receptor 1 (Homo sapiens, UniProt P17948); assay type: functional;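 further: measured within a kinome-wide profiling panel, FLT1 as the panel member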
[25] = target: Mast/stem cell growth factor receptor Kit (Homo sapiens, UniProt P10721); assay type: functional;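 further: KIT entry within a kinase panel assay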
[26] = target: Receptor-type tyrosine-protein kinase FLT3 (Homo sapiens, UniProt P36888); assay type: functional;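 further: FLT3 was tested as one member of a kinome-wide kinase panel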
[27] = target: Vascular endothelial growth factor receptor 2 (Homo sapiens, UniProt P35968); assay type: functional
[28] = target: Proto-oncogene tyrosine-protein kinase Src (Homo sapiens, UniProt P12931); assay type: functional;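 further: SRC entry within a kinome-wide kinase profiling panel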
[29] = target: Tyrosine-protein kinase ABL1 (Homo sapiens, UniProt P00519); assay type: functional
[30] = target: Vascular endothelial growth factor receptor 3 (Homo sapiens, UniProt P35916); assay type: functional;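 further: value from a kinome-wide profiling panel, with FLT4 as the panel member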
[31] = target: Melanin-concentrating hormone receptor 1 (Homo sapiens, UniProt Q99705); test: Late-stage fluorescence-based counterscreen for antagonists of the G-protein coupled receptor 7 (GPR7): cell-based dose response assay to identify antagonists of the melanin-concentrating hormone receptor 1 (MCHR1) Set 5.; assay type: functional
[32] = target: T7, Neuropeptides B/W receptor type 1 (Homo sapiens, UniProt P48145); test: human NPBW1 receptor blockade, IC50 – cell-based, fluorescence, dose response, set 5, late-stage follow-up (AID 588566); assay type: functional
T7 sequence (P48145 whole entry): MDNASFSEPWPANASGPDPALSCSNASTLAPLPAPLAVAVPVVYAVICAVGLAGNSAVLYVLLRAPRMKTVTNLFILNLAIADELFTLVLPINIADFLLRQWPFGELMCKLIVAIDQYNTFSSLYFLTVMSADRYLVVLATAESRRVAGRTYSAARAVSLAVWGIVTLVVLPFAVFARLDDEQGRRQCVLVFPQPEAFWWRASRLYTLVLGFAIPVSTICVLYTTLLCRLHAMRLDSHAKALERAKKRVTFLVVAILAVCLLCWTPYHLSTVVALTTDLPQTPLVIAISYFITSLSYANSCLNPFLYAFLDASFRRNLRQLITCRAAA

T1 sequence (P41143 whole entry): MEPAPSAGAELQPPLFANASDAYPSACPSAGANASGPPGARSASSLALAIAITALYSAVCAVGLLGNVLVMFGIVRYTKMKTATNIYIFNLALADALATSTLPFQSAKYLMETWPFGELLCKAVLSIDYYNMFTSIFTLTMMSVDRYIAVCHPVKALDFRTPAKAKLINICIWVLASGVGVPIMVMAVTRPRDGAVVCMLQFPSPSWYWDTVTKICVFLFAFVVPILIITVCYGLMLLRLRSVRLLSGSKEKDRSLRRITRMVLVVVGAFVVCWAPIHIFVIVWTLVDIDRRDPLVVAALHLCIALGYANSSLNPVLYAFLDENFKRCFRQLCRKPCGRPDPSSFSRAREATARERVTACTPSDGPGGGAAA
T6 sequence (P32842 whole entry): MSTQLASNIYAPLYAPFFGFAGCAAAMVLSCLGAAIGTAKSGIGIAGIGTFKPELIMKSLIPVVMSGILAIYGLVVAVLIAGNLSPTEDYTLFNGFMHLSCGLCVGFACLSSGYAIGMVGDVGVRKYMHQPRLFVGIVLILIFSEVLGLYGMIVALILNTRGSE
T3 sequence (P41145 whole entry): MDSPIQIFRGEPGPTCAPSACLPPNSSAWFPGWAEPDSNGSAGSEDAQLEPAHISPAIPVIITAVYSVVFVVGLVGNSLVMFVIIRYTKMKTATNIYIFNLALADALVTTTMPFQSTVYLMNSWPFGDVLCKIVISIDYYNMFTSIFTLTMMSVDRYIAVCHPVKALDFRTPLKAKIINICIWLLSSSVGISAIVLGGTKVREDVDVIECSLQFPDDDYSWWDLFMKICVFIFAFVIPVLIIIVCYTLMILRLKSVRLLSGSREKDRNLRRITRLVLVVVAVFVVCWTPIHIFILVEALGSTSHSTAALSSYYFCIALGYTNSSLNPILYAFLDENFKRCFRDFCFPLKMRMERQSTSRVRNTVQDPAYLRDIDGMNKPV
Sequence of Melanocortin receptor 4 (P32245 whole entry): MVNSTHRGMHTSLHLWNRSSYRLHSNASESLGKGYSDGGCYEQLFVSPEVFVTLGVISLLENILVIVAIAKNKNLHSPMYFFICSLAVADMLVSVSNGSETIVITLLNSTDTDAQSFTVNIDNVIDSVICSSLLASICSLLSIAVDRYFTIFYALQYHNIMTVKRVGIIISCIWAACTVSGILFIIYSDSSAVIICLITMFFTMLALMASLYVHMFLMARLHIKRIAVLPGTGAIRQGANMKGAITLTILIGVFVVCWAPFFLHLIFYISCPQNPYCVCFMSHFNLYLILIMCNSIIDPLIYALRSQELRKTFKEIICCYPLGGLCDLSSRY
Sequence of Vascular endothelial growth factor receptor 3 (P35916 whole entry): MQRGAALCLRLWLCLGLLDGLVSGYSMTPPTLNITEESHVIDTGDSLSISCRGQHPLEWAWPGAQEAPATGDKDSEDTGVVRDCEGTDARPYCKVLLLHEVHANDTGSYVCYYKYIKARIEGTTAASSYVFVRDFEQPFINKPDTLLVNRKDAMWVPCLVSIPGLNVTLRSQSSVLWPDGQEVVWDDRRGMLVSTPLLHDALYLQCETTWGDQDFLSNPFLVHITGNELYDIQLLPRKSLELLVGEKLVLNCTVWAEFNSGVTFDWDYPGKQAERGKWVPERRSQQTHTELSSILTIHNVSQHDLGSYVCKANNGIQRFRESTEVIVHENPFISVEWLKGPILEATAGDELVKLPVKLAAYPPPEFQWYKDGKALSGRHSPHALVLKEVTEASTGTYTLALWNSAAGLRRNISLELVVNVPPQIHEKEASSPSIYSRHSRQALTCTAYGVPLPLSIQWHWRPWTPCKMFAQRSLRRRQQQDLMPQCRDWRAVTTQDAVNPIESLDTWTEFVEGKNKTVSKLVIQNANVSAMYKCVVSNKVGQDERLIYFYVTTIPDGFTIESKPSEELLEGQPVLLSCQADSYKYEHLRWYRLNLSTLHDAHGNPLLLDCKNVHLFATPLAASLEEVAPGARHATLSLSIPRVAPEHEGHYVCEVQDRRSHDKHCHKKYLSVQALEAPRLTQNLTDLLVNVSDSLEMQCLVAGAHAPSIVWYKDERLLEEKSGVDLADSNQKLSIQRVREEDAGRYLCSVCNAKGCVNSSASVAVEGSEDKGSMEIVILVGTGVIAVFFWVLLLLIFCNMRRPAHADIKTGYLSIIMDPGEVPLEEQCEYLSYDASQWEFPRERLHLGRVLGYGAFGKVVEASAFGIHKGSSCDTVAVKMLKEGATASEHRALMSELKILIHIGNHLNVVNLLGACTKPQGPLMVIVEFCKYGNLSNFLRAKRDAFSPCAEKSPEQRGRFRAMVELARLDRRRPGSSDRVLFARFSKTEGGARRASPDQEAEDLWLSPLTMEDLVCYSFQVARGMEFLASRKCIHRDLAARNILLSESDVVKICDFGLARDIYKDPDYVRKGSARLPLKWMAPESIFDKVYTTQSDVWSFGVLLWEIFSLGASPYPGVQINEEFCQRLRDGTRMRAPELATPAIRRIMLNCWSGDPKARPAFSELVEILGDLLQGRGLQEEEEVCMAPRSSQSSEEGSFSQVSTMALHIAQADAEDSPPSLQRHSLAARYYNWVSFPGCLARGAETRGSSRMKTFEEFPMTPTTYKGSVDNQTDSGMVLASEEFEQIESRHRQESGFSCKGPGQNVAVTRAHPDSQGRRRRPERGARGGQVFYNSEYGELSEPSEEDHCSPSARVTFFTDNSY
Sequence of G-protein coupled receptor 35 (Q9HC97 whole entry): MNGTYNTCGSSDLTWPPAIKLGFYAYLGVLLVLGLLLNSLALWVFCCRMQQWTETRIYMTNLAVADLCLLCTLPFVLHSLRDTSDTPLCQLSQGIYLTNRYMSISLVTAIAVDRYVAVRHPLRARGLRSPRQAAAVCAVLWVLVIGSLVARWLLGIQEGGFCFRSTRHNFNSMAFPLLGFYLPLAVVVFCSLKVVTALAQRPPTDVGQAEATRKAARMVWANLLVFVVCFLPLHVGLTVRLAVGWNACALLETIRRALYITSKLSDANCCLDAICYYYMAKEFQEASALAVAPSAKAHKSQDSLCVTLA
Sequence of Tyrosine-protein kinase Lck (P06239 whole entry): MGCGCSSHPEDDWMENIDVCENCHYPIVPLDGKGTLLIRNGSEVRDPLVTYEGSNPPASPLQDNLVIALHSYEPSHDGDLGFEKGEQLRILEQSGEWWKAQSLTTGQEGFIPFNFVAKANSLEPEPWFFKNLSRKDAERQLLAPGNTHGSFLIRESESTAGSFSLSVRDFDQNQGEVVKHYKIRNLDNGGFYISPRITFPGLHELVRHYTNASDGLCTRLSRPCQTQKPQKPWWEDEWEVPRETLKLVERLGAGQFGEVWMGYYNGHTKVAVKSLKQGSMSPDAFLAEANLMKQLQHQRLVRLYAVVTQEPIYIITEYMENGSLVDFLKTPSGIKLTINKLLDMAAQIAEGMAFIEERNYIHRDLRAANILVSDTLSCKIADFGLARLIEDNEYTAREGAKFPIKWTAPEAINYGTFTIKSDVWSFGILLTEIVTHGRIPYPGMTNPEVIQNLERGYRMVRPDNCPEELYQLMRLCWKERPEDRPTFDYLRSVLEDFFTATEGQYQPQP
Sequence of Vascular endothelial growth factor receptor 1 (P17948 whole entry): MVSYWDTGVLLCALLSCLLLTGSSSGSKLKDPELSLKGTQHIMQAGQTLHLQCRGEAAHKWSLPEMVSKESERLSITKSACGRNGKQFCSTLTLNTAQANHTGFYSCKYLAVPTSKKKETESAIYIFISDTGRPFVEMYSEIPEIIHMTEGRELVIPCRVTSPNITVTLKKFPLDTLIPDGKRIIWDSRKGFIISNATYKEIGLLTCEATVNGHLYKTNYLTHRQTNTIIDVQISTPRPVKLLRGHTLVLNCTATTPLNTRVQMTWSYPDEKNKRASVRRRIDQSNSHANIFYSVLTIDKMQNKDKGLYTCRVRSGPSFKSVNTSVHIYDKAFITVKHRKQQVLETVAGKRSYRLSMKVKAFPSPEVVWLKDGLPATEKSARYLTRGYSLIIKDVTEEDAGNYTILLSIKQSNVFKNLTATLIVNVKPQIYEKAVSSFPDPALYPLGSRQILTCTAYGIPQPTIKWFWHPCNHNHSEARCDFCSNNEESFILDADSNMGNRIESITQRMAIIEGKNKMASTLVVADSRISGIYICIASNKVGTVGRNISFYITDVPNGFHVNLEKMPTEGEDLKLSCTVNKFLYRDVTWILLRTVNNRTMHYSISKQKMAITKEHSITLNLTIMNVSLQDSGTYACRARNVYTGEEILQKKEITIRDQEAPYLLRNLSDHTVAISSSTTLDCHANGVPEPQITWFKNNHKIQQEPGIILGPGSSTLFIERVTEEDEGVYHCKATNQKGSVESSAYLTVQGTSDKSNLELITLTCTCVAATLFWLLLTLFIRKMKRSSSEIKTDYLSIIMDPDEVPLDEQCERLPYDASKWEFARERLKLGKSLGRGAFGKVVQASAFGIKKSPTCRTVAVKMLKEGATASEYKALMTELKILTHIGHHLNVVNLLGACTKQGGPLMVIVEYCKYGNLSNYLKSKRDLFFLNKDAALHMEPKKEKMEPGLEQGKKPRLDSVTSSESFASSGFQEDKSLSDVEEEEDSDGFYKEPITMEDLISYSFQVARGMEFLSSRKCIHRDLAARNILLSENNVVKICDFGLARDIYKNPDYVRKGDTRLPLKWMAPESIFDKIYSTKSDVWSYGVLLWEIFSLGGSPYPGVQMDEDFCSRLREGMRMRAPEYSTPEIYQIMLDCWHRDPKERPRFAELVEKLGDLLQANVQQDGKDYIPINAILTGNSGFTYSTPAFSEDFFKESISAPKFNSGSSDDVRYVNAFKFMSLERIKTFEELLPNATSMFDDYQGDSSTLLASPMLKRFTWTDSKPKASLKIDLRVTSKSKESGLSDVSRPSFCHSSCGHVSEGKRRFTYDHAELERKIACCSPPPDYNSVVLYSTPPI

Compound: Cc1c(Cl)sn(-c2ccc(Cl)cc2)c1=O
- IC50 [1]: > 32 µM (inactive)
- AC50 [2]: < 0.195 µM (active)
- IC50 [3]: 49.6 µM (active)
- AC50 [4]: 3.85 µM (active)
- EC50 [5]: 6.37 µM
- IC50 (Melanocortin receptor 4): 3.75 µM (active)
- IC50 [6]: 118 µM (active)
- EC50 (Mu-type opioid receptor): > 32 µM (inactive)
- IC50 [7]: > 50 µM (not active)
- AC50 (Escherichia coli [8]): 2.64 µM (active)
- IC50 [9]: 2.72 µM (active)
- EC50 [10]: 5.19 µM (active)
- EC50 [11]: > 32 µM (inactive)
- AC50 [12]: 19.8 µM (active)
- AC50 (Escherichia coli [13]): 6.51 µM (active)
- EC50 [14]: > 35 µM
- EC50 [15]: 1.4 µM (active)
- IC50 [16]: 19.6 µM (inactive)
- AC50 [17]: 0.728 µM (active)
- CC50 [18]: 9.78 µM (active)

Compound: Cc1ccc(F)c(NC(=O)Nc2ccc(-c3c(F)ccc4[nH]nc(N)c34)cc2)c1
- Ki [19]: 0.501 µM (active)
- Ki [20]: 0.00126 µM (active)
- Ki [21]: 0.398 µM (active)
- Ki [22]: 0.631 µM (active)
- Ki [23]: 1.58 µM (active)
- Ki [24]: 0.000251 µM (active)
- Ki [25]: 0.001 µM (active)
- Ki [26]: 0.000794 µM (active)
- Ki [27]: 0.00794 µM (active)
- Ki [28]: 0.501 µM (active)
- Ki [29]: 0.501 µM (active)
- Ki [30]: 0.001 µM (active)

Compound: N#CC(c1ccccc1)c1c(Br)cnn(Cc2cccc3ccccc23)c1=O (centres undefined)
- IC50 [31]: 16.4 µM (inactive)
- IC50 [32]: 0.116 µM (active)
